US20260007717A1, “ANTIMICROBIAL PEPTIDE COMPOUNDS AND METHODS OF USE” (priority 2022, published 2026)
Values after ≈ are worked out from the molar mass of the structure shown. Values joined by “and” are separate entries in the source; they are usually repeats but may differ in a detail not shown here. Equal entries are not always repeated. Where two headings read alike, the source gives them in different places. Non-standard residues stand in square brackets, D forms with d. Residues, ends and D or L forms follow the SMILES beside them. Aib = CC(C)(N)C(=O)O

Assays:
[1] = tested on: Streptococcus pneumoniae, methicillin-sensitive Staphylococcus aureus, MRSA, Klebsiella pneumoniae and Pseudomonas aeruginosa; type: cell-based
[2] = tested on: A. baumannii ATCC19606 and LPS-modified strains pmrAP102R and pmrAP102RmiaAI221V; experiment: MIC on wild-type and LPS-modified strains; type: cell-based, Acinetobacter baumannii; conditions: LB broth
Protocol: MIC was determined against A. baumannii wild-type strain ATCC19606 and the corresponding LPS-defective mutants with pmrAP102R and pmrAP102RmiaAI221V mutation in LB broth.

[3] = tested on: human erythrocytes
Protocol: The anti-coagulated (citrate) whole blood was pelleted by centrifugation at 700 g for 8 min, washed three times with PBS, and suspended to 0.5% (vol/vol) in PBS. […] The highest concentration was 512 μg/ml (363 μM). PBS and Triton X-100 (0.1%) were used as negative and positive controls, respectively. The plate was incubated at 37° C. for 1 h, followed by centrifuge at 1,000 rpm for 5 min at 4° C. 60 μl aliquots of the supernatant from each well were quickly transferred to a new flat-bottom 96-well plate. The optical absorbance at OD414 was measured with a microplate reader (BioTek, synergy H1). The hemolysis percentage was then normalized with respect to the averaged negative (0%) and positive (100%) controls. Three independent experiments were conducted.

[4] = tested on: P. gingivalis; type: cell-based; conditions: anaerobic BHI broth
Protocol: Briefly, P. gingivalis is grown under anaerobic conditions to mid-log phase as per Dominy et al. […] The microtiter plate method outlined by Jansen (ibid) was used to measure MICs. Compounds and bacteria are added to wells of a microtiter plate and grown anaerobically (P. gingivalis) or with CO2 (L. salivarius) for 24 to 72 hours. Growth is measured with light scattering at 592 nm on a plate reader and absorbance plotted against μg/ml of drug in each well.

[5] = tested on: A. baumanii YQ4; experiment: Induction of resistance through serial passage; conditions: after 55 passages at sub-MIC
Protocol: The initial concentration of the tested compounds was set up as 1/32×MIC and doubled every 10 passages. The 1 ml of bacterial culture was stored in 10% sterile glycerol at −80° C. every 5 passages. The MIC value of collected cultures and original strains were measured through the micro-dilution method.

[6] = tested on: A. baumannii YQ4 biofilm; experiment: Static biofilm inhibition, crystal violet; type: cell-based, Acinetobacter baumannii
Protocol: 200 μl culture was seeded in each cell of the 96-well PVC plate with OD600 0.01 (ca. 1×10^6 CFU/ml), which was exposed to different COG1410 solution with the final concentrations ranging from 0.5 to 128 μg/ml. Each concentration was determined in 8 wells. After incubation 37° C. for 48 h, the planktonic bacteria were removed by washing three times with sterilized water, followed by fixing in methanol for 15 min and staining with 0.1% crystal violet (CV) for 15 min. Excess CV was washed off and the bound CV was eluted from the biofilm into 150 μl of 95% ethanol and quantitated spectrophotometrically at 600 nm using a Biotek Synergy H1 plate reader. The experiments were performed in triplicate.

[7] = tested on: A. baumannii YQ4; experiment: Nematode killing assay (infection model); conditions: NGM plate; 16 μg/ml COG1410 alone or 2 μg/ml COG1410 plus 1 μg/ml polymyxin B
[8] = single intravenous injection; cited from earlier work
[9] = tested on: A. baumannii YQ4 preformed biofilm; experiment: Biofilm eradication assay, crystal violet; type: cell-based, Acinetobacter baumannii; conditions: 24 h
Protocol: Biofilm eradication assay was performed as described previously [24]. A. baumannii YQ4 culture at log phase was diluted into fresh LB broth to OD600 0.01 and 200 μl per well dispensed into a 96-well PVC plate. Plates were incubated at 37° C. for 48 h and washed with PBS for three times. Serial dilutions of COG1410 (0.5-128 μg/mL) were prepared using the same media and were dispensed with 200 μl into each well. Each concentration was determined in 8 wells. LB without COG1410 was used as untreated control. After incubation for another 24 h, the remaining biofilm was quantified as described above. The experiments were performed in triplicate.

[10] = tested on: pan-drug resistant (PDR) Acinetobacter baumannii YQ4
[11] = tested on: A. baumannii YQ4; experiment: ATP leakage assay; type: cell-based, Acinetobacter baumannii; conditions: 1×MIC, 30 min
Protocol: ATP leakage assay was performed using the Enhanced ATP Assay Kit of Beyotime (S0027) according to the manufacturer's manual. Briefly, the log-phase culture of A. baumannii YQ4 was prepared, washed and suspended in PBS as above. This suspension was exposed to 16 μg/ml COG1410, 16 μg/ml polymyxin B and 32 μg/ml tigecycline, respectively and incubated at 37° C. for 30 min. The supernatant was harvested and used for measurement of ATP levels. 100 μl of supernatant was mixed with 100 μl working solution and the chemiluminescence was measured by Biotek Synergy H1 plate reader. Untreated sample was set as negative control. The experiments were performed in triplicate.

[12] = tested on: A. baumannii YQ4; experiment: ROS detection with DCFH-DA probe; type: cell-based, Acinetobacter baumannii
[13] = tested on: PDR A. baumannii YQ4; experiment: Dynamic time-kill assay in PBS
Protocol: For dynamic time-kill assay, the overnight culture of A. baumannii YQ4 was transferred to fresh broth with initial OD600 0.01 and grown to the logarithmic phase. 1 ml culture was harvested, washed twice with 1× phosphate-buffered saline (PBS, pH7.4), containing 8 mM NaH2PO4, 2 mM KH2PO4, 2.6 mM KCl, 136 mM NaCl), and finally suspended in 1 ml PBS with OD600 0.5, which approximately corresponds to 1×10^8 CFU/ml. […] 100 μl aliquot was respectively taken at 0, 5, 10 and 30 min, serially diluted in PBS and plated on LB agar. The CFUs were counted after incubation at 37° C. for 18 h. […] Three independent experiments were performed.

[14] = tested on: A. baumannii; experiment: Bactericidal efficacy in PBS, LB broth and saline; type: cell-based, Acinetobacter baumannii; conditions: 1×MIC, 2 h
[15] = tested on: A. baumannii YQ4; experiment: Bactericidal efficacy (LC99.9) in PBS with or without 50% human plasma; type: cell-based, Acinetobacter baumannii; conditions: 2 h, listed as COG1410
Protocol: Antibacterial activity in plasma of COG1410 was performed as described previously. […] After incubation with shaking at 200 rpm at 37° C. for 2 hours, the CFUs were counted on LB agar. LC99.9 indicates the lowest peptide concentration that kills ≥99.9% bacteria (ie. a 1000 fold reduction). The experiments were conducted independently for three times.

[16] = tested on: A. baumannii YQ4
Protocol: The checkerboard method was performed to determine the fractional inhibitory concentration (FIC) index between COG1410 and other antimicrobials. Two-fold serial dilutions of antimicrobials and COG1410 were conducted and mixed in the 96-well plate. […] The experiments were conducted twice independently.

[17] = tested on: normal human hepatic L02 cells; experiment: Cytotoxicity, CCK8 assay; conditions: 24 h
Protocol: The cytotoxicity of COG1410 on normal liver cell L02 was assessed by Cell Counting Kit 8 (Solarbio, CA1210) according to the manufacturer's manual. Briefly, 100 μl human hepatic L02 cells were seeded in the 96-well plate with 4×10^3 cells per well in RPMI-1640 medium containing 20% FBS, and incubated at 37° C. in a 5% CO2 atmosphere for 24 h. The cells without exposure to peptide were used as negative control. Then, the L02 cells were incubated with different concentrations of COG1410 for another 24 h. 10 μl CCK8 solution was added to each well. After 2 h incubation, the optical absorbance at 450 nm was measured with BioTek synergy H1 plate reader. […] The experiments were done in triplicate.

[18] = Stability in 100% human plasma (inhibition zone on A. baumannii YQ4); type: in vitro ADME
[19] = tested on: pan-drug resistant (PDR) Acinetobacter baumannii YQ4; experiment: microbe, parasite or virus in culture

Compound: CC(=O)N[C@@H](C)C(=O)N[C@@H](CO)C(=O)NC(C)(C)C(=O)N[C@@H](CC(C)C)C(=O)N[C@@H](CCCNC(=N)N)C(=O)N[C@@H](CCCCN)C(=O)N[C@@H](CC(C)C)C(=O)NC(C)(C)C(=O)N[C@@H](CCCCN)C(=O)N[C@@H](CCCNC(=N)N)C(=O)N[C@@H](CC(C)C)C(=O)N[C@@H](CC(C)C)C(N)=O [SEQ ID NO: 1, acetyl-AS-aib-LRKL-aib-KRLL-amide] (Ac-AS[Aib]LRKL[Aib]KRLL-NH2)
- antimicrobial activity [1]: inactive
- effect of lipidA modification of LPS on antimicrobial efficacy [2]: did not change the antimicrobial efficacy
- EC50 (half of the red blood cells lysed) ([3]; 1 h): 441 µg/mL
- hemolysis ([3]; red cells of human, 128 μg/ml): less than 5%
- MIC P. gingivalis [4]: 16 to 64 µg/mL
- increase of MIC [5]: 4 fold
- biofilm formation ([6]; 0.5×MIC, 48 h): significantly reduced biofilm formation
- biofilm mass reduced, compared with untreated controls ([6]; 1×MIC): 55%
- survival of pre-infected nematodes [7]: alleviated the death of infected nematodes, but the change was not statistically significantly
- functional outcome [8]: significantly improved vestibulomotor function and spatial learning and memory
- mature biofilm dispersed ([9]; 1×MIC): ca. 46%
- biofilm eradicated ([9]; 4×MIC): more than 88%
- MIC ([10]; A. baumannii YQ4): 11.3 µM
- MIC ([10]; A. baumannii YQ4, LB broth): 16 µg/mL
- minimal bactericidal concentration (MBC) ([10]; A. baumannii YQ4, listed as COG1410): 16 μg/ml and 11.3 μM
- ATP leakage [11]: significantly more than untreated controls and the tigecycline treatment group
- ROS production ([12]; 16 μg/ml): significantly increased ROS production
- more ROS detected after treatment ([12]; treatment for 20 min): 30%
- reduction in CFU ([13]; 1×MIC, 30 min): 6 log
- decrease of CFU ([13]; 1×MIC, within 5 min): ~3 logs
- killing of inoculum (1×10^8 CFU/ml) ([13]; 5×MIC, within 5 min): completely eliminated
- bactericidal efficacy [14]: near elimination
- LC99.9 ([15]; PBS with 50% human plasma): 8 μg/ml and 5.6 μM
- LC99.9 ([15]; PBS): 2 μg/ml and 1.4 μM
- working concentration in the combination ([16]; COG1410 combined with polymyxin B): 2 µg/mL
- FIC ([16]; in combination with Ceftazidime): 0.31
- FIC ([16]; in combination with polymyxin B): 0.13
- FIC ([16]; in combination with tetracycline): 0.31
- half-maximal (EC50) toxicity concentration [17]: 58.9 µg/mL
- inhibition diameters ([18]; 37° C., first 2 h): did not significantly change
- activity reduced ([18]; 4 h): 6.8%
- activity lost ([18]; 10 h): 20%
- activity retained ([18]; after 10 h): more than 80%

Compound: CN(C)c1cc(NC(=O)CNC(C)(C)C)c(O)c2c1C[C@H]1C[C@H]3[C@H](N(C)C)C(O)=C(C(N)=O)C(=O)[C@@]3(O)C(O)=C1C2=O [tigecycline]
- MIC [19]: 32 µg/mL (≈ 54.6 µM)
